Source: patent publication US6740644B2, “Chemical compounds” (Smithkline Beecham Corporation, priority 1997, dated 2004)

Assays:
[1] = target: T1, A3 receptor (Homo sapiens, UniProt P0DMS8); test: Reporter gene experiments: A3 receptor gene assay, ECR relative to NECA; conditions: ECR = concentration ratio relative to NECA = 1
T1 sequence (P0DMS8 1-318): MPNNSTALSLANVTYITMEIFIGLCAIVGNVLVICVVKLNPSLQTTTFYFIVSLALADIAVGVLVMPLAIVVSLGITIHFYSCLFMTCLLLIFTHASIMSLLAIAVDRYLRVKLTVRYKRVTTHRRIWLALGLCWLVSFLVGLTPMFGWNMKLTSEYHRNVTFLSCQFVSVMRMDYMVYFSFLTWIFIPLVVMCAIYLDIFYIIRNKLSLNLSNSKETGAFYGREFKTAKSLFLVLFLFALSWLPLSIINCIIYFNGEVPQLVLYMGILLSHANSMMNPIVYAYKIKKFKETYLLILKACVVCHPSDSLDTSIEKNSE

[2] = target: T2, human adenosine A1 receptor (Homo sapiens, UniProt P30542); test: Reporter gene experiments: inhibition of forskolin-stimulated SPAP production in CHO cells (CRE/SPAP/HYG), A1; format: cell-based; conditions: ECR = concentration ratio relative to NECA = 1, CHO cells co-expressing human adenosine A1 receptor
T2 construct: expressed in transfected cells; host or cells: Chinese hamster ovary (CHO) cells containing the CRE/SPAP/HYG reporter gene
T2 sequence (P30542 1-326): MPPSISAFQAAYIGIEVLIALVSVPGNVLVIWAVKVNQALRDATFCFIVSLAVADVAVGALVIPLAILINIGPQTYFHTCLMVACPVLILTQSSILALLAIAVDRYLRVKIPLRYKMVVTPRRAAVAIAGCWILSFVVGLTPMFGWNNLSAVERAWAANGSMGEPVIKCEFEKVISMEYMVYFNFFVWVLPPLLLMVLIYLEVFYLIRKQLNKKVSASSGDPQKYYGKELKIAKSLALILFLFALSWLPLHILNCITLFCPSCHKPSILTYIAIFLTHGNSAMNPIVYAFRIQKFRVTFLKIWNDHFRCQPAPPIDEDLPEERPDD
Description: Reporter Gene Experiments
Agonist activity was measured in Chinese hamster ovary (CHO) cells containing the CRE/SPAP/HYG (CRE=cyclic AMP response element; HYG=hygromycin; SPAP=secreted placental alkaline phosphatase) reporter gene, which upon stimulation of cAMP levels produced SPAP. A cell line was used, which stably co-expresses the human adenosine A1 receptor. Cells were plated out in 96-well plates in culture medium and incubated at 37° C. for 1 hour. […] All cells were then incubated for a further 5 hours at 37° C., and cooled to room temperature, after which a substrate for the phosphatase (para-nitrophenol phosphate,pNPP), which is broken down to a coloured reagent) was then added and the 96-well plates are read in a plate reader. From these readings, the concentration-dependence of the inhibition by the agonist of forskolin-stimulated SPAP production, can be calculated.

Compound | A3 Receptor Gene Assay ECR [1] | A1 Receptor Gene Assay ECR [2] | melting point
COC[C@H]1O[C@@H](n2cnc3c(N[C@@H]4C[C@@H]5CC[C@H]4C5)ncnc32)[C@H](O)[C@@H]1O (relative stereo) [Example 22, N-rel-[(1S,4R)-Bicyclo[2.2.1]hept-2R-yl]-5′-O-methyl-adenosine] | 112 | – | –
COC[C@H]1O[C@@H](n2cnc3c(N[C@@H]4CCOC4)ncnc32)[C@H](O)[C@@H]1O [Example 1, 5′-O-Methyl-N-(tetrahydro-furan-3R-yl)-adenosine] | >129 | – | –
COC[C@H]1O[C@@H](n2cnc3c(NC4CCOCC4)ncnc32)[C@H](O)[C@@H]1O [Example 2, 5′-O-Methyl-N-(tetrahydro-pyran-4-yl)-adenosine] | 180 | 3.30 | 133 to 134 °C
COC[C@H]1O[C@@H](n2cnc3c(N[C@H]4CCC[C@@H]4OC)ncnc32)[C@H](O)[C@@H]1O [Example 3, N-(2S-Methoxy-(S)-cyclopentyl)-5′-O-methyl-adenosine] | 204 | – | –
COC[C@H]1O[C@@H](n2cnc3c(N[C@@H]4CCO[C@H]4C)ncnc32)[C@H](O)[C@@H]1O [Example 4, 5′-O-Methyl-N-(2S-methyl-tetrahydro-furan-3R-yl)-adenosine] | 338 | – | –
COC[C@H]1O[C@@H](n2cnc3c(Nc4ccc(O)c(Cl)c4)ncnc32)[C@H](O)[C@@H]1O [Example 5, N-(3-Chloro-4-hydroxy-phenyl)-5′-O-methyl-adenosine] | >116 | 6.21 | 225 to 230 °C
COC[C@H]1O[C@@H](n2cnc3c(N[C@H](C)Cc4ccccc4)ncnc32)[C@H](O)[C@@H]1O [Example 6, 5′-O-Methyl-N-(1R-methyl-2-phenyl-ethyl)-adenosine] | 5.00 | 1.27 | –
COC[C@H]1O[C@@H](n2cnc3c(N[C@H](C)CO)ncnc32)[C@H](O)[C@@H]1O [Example 14, N-(2-Hydroxy-1R-methyl-ethyl)-5′-O-methyl-adenosine] | – | – | 232 to 233 °C
COC[C@H]1O[C@@H](n2cnc3c(N[C@@H]4CCC[C@H]4O)ncnc32)[C@H](O)[C@@H]1O [Example 17, N-(2R-Hydroxy-(R)-cyclopentyl)-5′-O-methyl-adenosine] | 57.3 | 3.90 | 202 to 204 °C
COC[C@H]1O[C@@H](n2cnc3c(NC(C)(C)C)ncnc32)[C@H](O)[C@@H]1O [Example 19, N-tert-Butyl-5′-O-methyl-adenosine] | >243 | 1.62 | –
COC[C@H]1O[C@@H](n2cnc3c(N[C@H]4CCC[C@@H]4F)ncnc32)[C@H](O)[C@@H]1O [Example 20, N-(2S-Fluoro-(S)-cyclopentyl)-5′-O-methyl-adenosine] | 54.8 | – | –
CCOC(=O)N1CCC(Nc2ncnc3c2ncn3[C@@H]2O[C@H](COC)[C@@H](O)[C@H]2O)CC1 [Example 23, 4-[9-(3R,4S-Dihydroxy-5R-methoxymethyl-tetrahydro-furan-2R-yl)-9H-purin-6-ylamino]-piperidine-1-carboxylic acid ethyl ester] | 162 | 2.20 | –
CNS(=O)(=O)CCNc1nc(C)nc2c1ncn2[C@@H]1O[C@H](COC)[C@@H](O)[C@H]1O [Example 25, 2-[9-(3R,4S-Dihydroxy-5R-methoxymethyl-tetrahydro-furan-2R-yl)-2-methyl-9H-purin-6-ylamino]-ethanesulfonic acid methylamide] | >288 | 1.67 | –
COC[C@H]1O[C@@H](n2cnc3c(NC4CCCC4)nc(C)nc32)[C@H](O)[C@@H]1O [Example 27, N-Cyclopentyl-2-methyl-5′-O-methyl-adenosine] | >263 | 3.02 | –
COC[C@H]1O[C@@H](n2cnc3c(NCC4CC4)nc(C)nc32)[C@H](O)[C@@H]1O [Example 28, N-Cyclopropylmethyl-2-methyl-5′-O-methyl-adenosine] | >99 | 8.07 | –
N-(2,3-Dihydroxy-propylamino)-5′-O-methyl-adenosine [Example 21] | 135 | – | –
